Where two headings read alike, the source gives them in different places.
Columns and labels:
[1] = test system: penile reflexes in castrated rats; assay: Penile reflexes (E2, cups) in castrated rats after transdermal application; assay type: in vivo, rat
Protocol: (a) The ointment composition was: 31.2 μl 10% Sefsol 318™ (glyceryl monocaprylate), and either 0.24 mg stearoyl-VIP in 31.2 μl DMSO (1-2μl per animal) (SEFS in FIG. 1) or 0.24 rig stearoyl-Nle^17 -VIP in the above (SEFS* in FIG. 1).
(b) For other analogs described hereinafter 10 μl of solution were used per animal containing 7 μg of active material in a vehicle containing 5% Sefsol and 20% isopropanol.
In a further set of experiments the effects of stearoyl-VIP compounded with Sefsol 318™ were compared with those of stearoyl-Nle^17 -VIP compounded with Sefsol 318™.
In a second type of biological experiments the effects of compositions containing other modified VIP conjugates compounded with Sefsol 318™ were tested.
Rats with reduced sexual potential due to castration were employed. Male rats (250-300 g, about three month old) were kept in a 12-hours light, 12-hours dark cycle. Experiments were always conducted within the dark period, 2-6 hours after the onset of darkness. Male rats were castrated and given partial testosterone replacement (4 μg/100 g body weight) in the form of daily injection for 14-21 consecutive days (the duration of the experiment). Experiments were conducted one week following surgery.
A procedure was utilized that employed the technique that measures sexual reflexes in the penis, which enables direct evaluation of penile erection following transdermal administration of the drug. Successful reproduction depends, in large part, upon the precise execution of temporally organized, functionally related behavioural units. In these experiments, we concentrated on the final stages of the erection process (reddening of the penis accompanied by its distension and extension leading to complete erection) and monitored the latency time to the first E2 and first cup(^14).
For testing, each animal was restrained in a supine position with the anterior portion of its body enclosed in a loosely fitting cylinder (7 cm diam). After a belt was secured around the torso, the glans penis was extruded from its sheath and gently held perpendicular to the abdomen by a thin wooden applicator positioned at the posterior of the penis. The legs of the male were held by the observer and this position was maintained throughout the test period. The duration of the session was 45 minutes. The latencies and numbers of E2 and cups were recorded and plotted.
An E2 is defined as a complete erection which can be followed by cup in which the penile tip is turned into a cup-like structure, whereby the glands flare out such that the penis is wider in its distal portion than its base. This final stage requires E2 and is probably a pre-requisite for ejaculation (13). Using, all the parameters one can obtain a reliable measure of the sexual activity of the tested rat.
Six to ten animals were tested in this paradigm for each variable. Control animals received ointment compositions without the modified VIP conjugate.

[2] = Skin penetration and body distribution of 125I-labelled conjugates after topical application to the penis; assay type: in vivo
Text: These experiments were divided into two groups. In the first group of experiments we performed a time course of the distribution of radioactively labelled stearoyl-Nle^17 -VIP (in Sefsol 318™), applied transdermally to the penis of the animals, in various organs of the body. In the second group of experiments we compared the penetration of radioactively labelled VIP, Nle^17 -VIP St-VIP and St-Nle^17 -VIP with Sefsol 318™ following transdermal application. Two to four animals were used for each data point. The derivatives were labelled with 1251 using the chloramine-T based method^(14).
In the first group of experiments, stearoyl-Nle^17 -VIP was radioactively labelled with I^125. Each animal received 2.2 million CPM, in 6μl of the radioactive material+ 26μl ointment (ointment No. 4 in Example 5). Two animals were used for each time point in two independent experiments. To avoid oral absorbance, the animal mouth was sealed. At indicated times following topical application, animals were sacrificed and duplicate tissue samples were removed, weighed and counted in a gamma counter. Tissues measured were: lungs (LU), heart (HE), kidneys (KI), liver (Li) and intestine (IN).
In the second group of experiments compositions of Sefsol 318™ and VIP, St-VIP, Nle^17 -VIP and St-Nle^17 -VIP were prepared. The experiments were performed as in FIG. 7 with the only difference that each animal received a 2.4 million CPM, 2-4 animals were utilized for each variable. Animals were sacrificed 30 minutes after the application of the drug.

Sprague Dawley rats [3] = assay: Single dose toxicity, intravenous (tail vein); assay type: in vivo, rat; conditions: for acute intravenous median lethal dose (LD50): with vehicle
Protocol: The single dose toxicity of stearoyl-Nle^17 -VIP injected intravenously, into the tail vein, was investigated in 4 groups of six male and six female rates [Sprague Dawley (S.D.) strain, purchased from Levinstein, Yokneam, Israel).
Test Groups constitution:
2. Vehicle (Sefsol 5% + isopropanol 50%)
3. Stcaroyl-Nle^17 -VIP 7 μg/rat + vehicle
4. Stearyol-Nle^17 -VIP 7,000 μg/rat + vehicle

[4] = Stability of the test material; assay type: physicochemical
Sprague Dawley rats [5] = assay: Repeated dose toxicity, topical, 13 weeks
Protocol: The repeated dose toxicity of stearoyl-Nle^17 -VIP administered topically was investigated in 80 SPF (Specified pathogen free) rats divided into 4 groups of ten male and ten female Sprague Dawley (S.D.) strain rats purchased from Harlan, Olac, England.
Group 1: 7 μg stearoyl-Nle^17 -VIP+vehicle (1× dose)
Group 2: 700 μg stearoyl-Nle^17 -VIP+vehicle (100× dose)
Group 4: Vehicle only (5% Sefsol+20% isopropanol)

[6] = test system: penile erection in normal male; conditions: cited from earlier work
[7] = Table 3, topical, 7 μg in 5% Sefsol and 20% isopropanol, castrated rats, 45 min session
[8] = Group 3, 7 μg/rat + vehicle i.v.
[9] = daily topical 7, 700, 3500 μg, 13 weeks
[10] = daily topical 7, 700, 3500 μg, 13 weeks, male and female rats

In the case of “stearoyl-norleucine^17 -VIP [St-Nle^17 -VIP]”, the “No. of E2” value [1, 7] is reported as 9, the No. of cups [1, 7] is reported as 27 and the biologically active dose ([1]; pharmacological experimentation, rat) is reported as 7 μg per rat. The “latency to first E2” value ([1]; topical, in Sefsol 318 ointment (SEFS*), castrated rats, 45 min session, FIG. 1) was “about 1 minute”, the “latency to first cup” value ([1]; topical, in Sefsol 318 ointment (SEFS*), castrated rats, 45 min session, FIG. 2) was 10 min and the “number of E2 during the test period” value ([1]; topical, in Sefsol 318 ointment, castrated rats, 45 min session, FIG. 3) was 34. The number of cups ([1]; topical, in Sefsol 318 ointment, castrated rats, 45 min session, FIG. 4) was 20, the “efficiency according to all the four parameters tested” value ([1]; transdermal, Sefsol 318 composition, compared with stearoyl-VIP in Sefsol 318) was “more efficient” and the “disappearance from organs, time after administration” value ([2]; 125I-labelled, topical in Sefsol 318, FIG. 7) was 2.5 h. The “peak deliveries to organs, time after administration” value ([2]; 125I-labelled, topical in Sefsol 318, lungs, heart, kidneys, liver, intestine, FIG. 7) was 15 to 60 min, the “concentrations in kidney, liver and intestines” value ([2]; 30 minutes after topical application in Sefsol 318, compared with VIP, Nle17-VIP, St-VIP, FIG. 8) was “highest concentrations” and the mortality (Sprague Dawley rats [3]; [8]) was “No mortality”. For the same substance, the “necrotic reaction at the site of injection (tail skin), share of animals” value (Sprague Dawley rats [3]; [8]) was 58%, the “necrotic reaction at the site of injection (tail skin), share of animals” value (Sprague Dawley rats [3]; Group 4, 7,000 μg/rat + vehicle i.v.) was “all the animals” and the mortality (Sprague Dawley rats [3]; Group 4, 7,000 μg/rat + vehicle i.v., within 3 hours after administration) was “Seven rats (3 male and 4 female out of 12) died”. The “acute intravenous median lethal dose (LD50)” value (Sprague Dawley rats [3]; combined males and females) was < 7,000 μg, the “acute intravenous median lethal dose (LD50)” value (Sprague Dawley rats [3]; male rats) was 7,000 μg/male rat and the other side effects (Sprague Dawley rats [3]; surviving rats of all groups) was “No other side effects”. For the same substance, the body weight gain (Sprague Dawley rats [3]; two weeks after i.v. dose, ANOVA versus vehicle control group) was “increased weight gain”, the “stability compared with stearoyl-VIP” value [4] was “more stable” and the Stability ([4]; powder) was “for a year”. For the same substance, the Stability ([4]; refrigerated in a solubilized form) was “for at least six weeks”, the adverse effects (Sprague Dawley rats [5]; [9]) was “No dose related adverse effects” and the “clinical pathology (hematology, clinical chemistry)” value (Sprague Dawley rats [5]; [9]) was “No dose related or sex related biologically meaningful treatment effects”. For the same substance, the “body weight gain and food consumption” value (Sprague Dawley rats [5]; [10]) was “No significant differences”, the mortality (Sprague Dawley rats [5]; [10]) was “No mortality associated with drug application” and the organ weight analysis (Sprague Dawley rats [5]; daily topical 7, 700, 3500 μg, 13 weeks, versus control group) was “No treatment related differences”. For the same substance, the “overall conclusion, serious adverse effects” value (Sprague Dawley rats [5]; daily topical application for 13 weeks, any of the dosages tested) was “did not cause any serious adverse effects”.

For “Vasoactive intestinal peptide (HSDAVFTDNYTRLRKQMAVKKYLNSILN) [VIP]”, the penile response ([6]; as little as 1 μg into the corpus cavernosum, coupled with sexual stimulation) is listed as “facilitated full erection” and the penile response ([6]; up to 20 μg into the corpus cavernosum, without sexual stimulus) is listed as “caused only slight swelling of the penis but not erection”.

Source: patent US5998368A, “Derivatives of structurally modified VIP and pharmaceutical compositions containing them” (Yeda Research and Development Co. Ltd., priority 1991, dated 1999)
